Assay [1] relates to Tetranychus viennensis egg. In words: Mite egg hatching inhibitory activity (toxicity to mite eggs), leaf-immersing method. The format is in vivo. On the procedure:
(§1) Mite egg hatching inhibitory activity determination trial: The trial was carried out using a leaf-immersing method. A mother solution of the technical material with a mass concentration of 1 wt % was prepared with acetone for later use, and diluted with deionized water comprising 0.1 wt % Tween 80 to a series of trial concentrations. A 1.2% aqueous agar was poured into a Petri dish with a diameter of 9 cm and cooled for later use. Twenty adult mites were selected and inoculated onto pepper leaves. After 2 days, the adult mites were removed, and the number of mite eggs is counted. The leaves with eggs were immersed in the prepared agent liquid for 10 s and then taken out. The leaves were placed in a Petri dish and moisturized. Each treatment was repeated 3 times. A 0.1 wt % aqueous solution of Tween 80 was used to set up a blank control. These treatments were placed in a biochemical incubator at 24±1° C. After mite eggs of the blank control group hatched, the trial results were checked, and the hatchability rate was calculated.

Assay [2] relates to Tetranychus cinnabarinus egg. Described as above. Type of assay: in vivo. As for the experimental part: as §1
In assay [3] the test system is Tetranychus urticae egg. Described as above. The format is in vivo. As for the experimental part:
as §1

The subject of assay [4] is Panonychus citri egg. Described as above. The format is in vivo. On the procedure:
as §1

Assay [5] deals with Tetranychus cinnabarinus eggs. In words: Toxicity to Tetranychus cinnabarinus eggs in different areas. The format is in vivo. Conditions: for LC50: Tetranychus cinnabarinus. As for the experimental part: as §1
The procedure was the same as above except that the assay for toxicity to Tetranychus cinnabarinus eggs was carried out in different areas.

The subject of assay [6] is Tetranychus cinnabarinus Adult female mite. The assay can be described thus: Oviposition inhibitory activity determination trial. The format is in vivo. The settings on record: 144 h, read-out: 6-day oviposition inhibition rate; for inhibition at 1 µg/mL: trial concentration 1 mg/L; for inhibition at 5 µg/mL: trial concentration 5 mg/L. On the procedure:
(§2) Oviposition inhibitory activity determination trial: A mother solution of the technical material with a mass concentration of 1 wt % was prepared with acetone for later use, and diluted with deionized water comprising 0.1 wt % Tween 80 to a series of trial concentrations. Fresh leaves of cowpea seedlings were selected and cut into round leaf disks with a diameter of about 5.0 cm. The leaf disks were placed in a plastic Petri dish with filter paper and degreased cotton spread in it. 5 mg/L and 10 mg/L treatment agents were applied to the back of the leaves with cotton swabs. An aqueous solution with the same solvent proportion was used as a control agent. After the agent liquid was naturally evaporated under indoor conditions, about 20 female adult mites aged 3-5 days were inoculated onto each leaf. Each treatment was repeated 5 times, about 100 mites were treated The mites were kept in the same conditions, and observed under a binocular dissecting microscope every 24 h over 6 consecutive days, and the number of laid eggs was recorded for each treatment. After the trial ended, the oviposition inhibition rate was calculated for each treatment.

For assay [7], the system named is Tetranychus urticae Adult female mite. The description is as above. The format is in vivo. The settings on record: 144 h, read-out: 6-day oviposition inhibition rate; for inhibition at 1 µg/mL: trial concentration 1 mg/L; for inhibition at 5 µg/mL: trial concentration 5 mg/L. On the procedure:
as §2

Assay [8] has as its system Tetranychus viennensis Adult female mite. The assay is described as above. The format is in vivo. The settings on record: 144 h, read-out: 6-day oviposition inhibition rate; for inhibition at 1 µg/mL: trial concentration 1 mg/L; for inhibition at 5 µg/mL: trial concentration 5 mg/L. As for the experimental part: as §2
Assay [9] concerns Panonychus citri Adult female mite. The description is as above. The format is in vivo. The settings on record: 144 h, read-out: 6-day oviposition inhibition rate; for inhibition at 1 µg/mL: trial concentration 1 mg/L; for inhibition at 5 µg/mL: trial concentration 5 mg/L. As for the experimental part: as §2
Assay [10] relates to Diamondback moth egg. The assay can be described thus: Egg hatchability inhibition, leaf-immersing method. Type of assay: in vivo, Plutella xylostella (Linnaeus). The settings on record: Plutella xylostella, read-out: Hatchability inhibition. As for the experimental part: (§3) Diamondback moth egg: The trial was carried out using a leaf-immersing method. A mother solution of the technical material with a mass concentration of 1 wt % was prepared with acetone, and diluted with deionized water comprising 0.1 wt % Tween 80 to trial concentrations for later use. 1.2% agar was poured into a Petri dish with a diameter of 9 cm and cooled for later use. Two-leaf one-core radish seedlings were placed in the Petri dish when adult diamondback moths were at the great oviposition phase. After 1 day, the […] seedlings were taken out. Radish seedlings with 20-30 eggs in it were selected and immersed in the agent liquid for 10 s and then taken out, and the radish seedlings were placed in a Petri dish and moisturized. Each treatment was repeated 3 times. A 0.1 wt % aqueous solution of Tween 80 was used to set up a blank control, and the blank control was placed in an insect-raising chamber at 25° C. After larvae of the blank control group hatched, the trial results were checked, and the hatchability was calculated.

In assay [11] the test system is Maize armyworm egg. The assay can be described thus: Egg hatchability inhibition, leaf-immersing method. The format is in vivo, Mythimna separate (Walker). The settings on record: read-out: Hatchability inhibition. On the procedure:
as §3, with “Maize armyworm egg: The” for “Diamondback moth egg: The”, “Two-leaf one-core corn seedlings were” for “Two-leaf one-core radish seedlings were”, “when adult maize armyworms were at” for “when adult diamondback moths were at”, “taken out. Corn seedlings with” for “taken out. Radish seedlings with”, “and the corn seedlings were” for “and the radish seedlings were”

Assay [12] concerns Bemisia tabaci egg. The assay can be described thus: Egg hatching inhibition, potting spray method. The format is in vivo. The settings on record: read-out: Hatchability inhibition. As for the experimental part: Bemisia tabaci egg: A potting spray method was adopted. A mother solution of the technical material with a mass concentration of 1 wt % was prepared with acetone for later use, and a series of trial concentrations were prepared using a 0.1 wt % aqueous solution of Tween 80. Potted pepper plants growing at the same pace were selected. Every 6 potted pepper plants were counted as a treatment unit and placed in an insect-raising cage. About 500 silverleaf whiteflies were inoculated into each insect-raising cage and normally kept for 2 days, and then the adults were removed. After the agent was prepared, it was used to spray the pepper plants. After the spraying, the plants were placed in the insect-raising cages. A 0.1 wt % aqueous solution of Tween 80 was used to set up a blank control, and the blank control was placed in an insect-raising chamber at 25° C. After […] nymphs of the blank control group hatched, the number of nymphs in each treatment unit was counted, and the hatching inhibition rate was calculated.

The test system of assay [13] is Bradysia odoriphaga egg. In words: Egg toxicity, agent liquid quantitative dropwise addition method. The settings on record: 120 h, read-out: Hatchability inhibition. The format is in vivo. On the procedure:
Bradysia odoriphaga egg: The trial was carried out by using an agent liquid quantitative dropwise addition method. A mother solution of the technical material with a mass concentration of 1 wt % was prepared with acetone for later use, and a series of trial concentrations were prepared using a 0.1 wt % aqueous solution of Tween 80. Bradysia odoriphaga eggs aged 2 days were picked up. Each treatment unit comprised 20 eggs. The eggs were placed in a Petri dish with a diameter of 9 cm with filter paper spread in it. 600 μL of agent liquid was dropwise added with a pipette onto the eggs, and 600 μL of agent liquid onto the filter paper. Each treatment was repeated 3 times. A 0.1 wt % aqueous solution of Tween 80 was used to set up a blank control, and the blank control was placed in a biochemical incubator at 24±1° C. after treatment. Five days after application, the trial results were checked.

This passage reports LC50, LC90 and inhibition results from patent publication US12599133B2, “Use of trifluenfuronate for prevention and treatment of agricultural pest insects and mites” (SHANDONG UNITED PESTICIDE INDUSTRY CO., LTD., priority 2020, dated 2026).

In brackets after ≈: the same amount, converted by molar mass. Where two headings read alike, the source gives them in different places.

The LC50 is the concentration lethal to half of the exposed cells or organisms. As usually defined, the inhibition is how much of the control response was suppressed. As for `CCOc1cc(C(C)(C)C)ccc1C1COC(c2c(F)cccc2F)=N1` (stereo not shown) [Etoxazole], the median lethal concentration (LC50) in assay [1] turned out to be 17.6 µg/mL (≈ 49 µM); in [2], 18.5 µg/mL (≈ 51.6 µM); in assay [3], 17.8 µg/mL (≈ 49.5 µM); in assay [4], 21.6 µg/mL (≈ 60 µM); in assay [5] (area Fangcun, Taian), 15.4 µg/mL (≈ 42.8 µM); in assay [5] (area Jiyang, Jinan) it was 5.37 µg/mL (≈ 14.9 µM). The median lethal concentration (LC50) in assay [5] (area Qihe, Dezhou) amounted to 26 µg/mL (≈ 72.3 µM); in assay [5] (area Shouguang, Weifang) it was 7.21 µg/mL (≈ 20.1 µM). Besides, the LC90 in assay [1] came out at 88.51 µg/mL (≈ 246 µM); in assay [2], 124.23 µg/mL (≈ 346 µM); in assay [3] it was 135.01 µg/mL (≈ 376 µM); in assay [4], 123.59 µg/mL (≈ 344 µM); in assay [5] (area Fangcun, Taian) it was 168.95 µg/mL (≈ 470 µM); in assay [5] (area Jiyang, Jinan), 62.95 µg/mL (≈ 175 µM). Also, the LC90 was found to be 162.82 µg/mL (≈ 453 µM) in assay [5] (area Qihe, Dezhou) and 69.57 µg/mL (≈ 194 µM) in assay [5] (area Shouguang, Weifang). The inhibition at 1 µg/mL was 35.7% in assay [6], 35.9% in assay [7], 27% in [8] and 37.6% in assay [9]. The inhibition at 5 µg/mL in [6] was determined as 66.8%; in [7] it was 69.2%; in assay [8], 60.8%; in assay [9], 65.4%.
For the compound `O=C(NC(=O)c1c(F)cccc1F)Nc1cc(Cl)c(OC(F)(F)C(F)C(F)(F)F)cc1Cl` (stereo not shown) [Lufenuron], the inhibition at 5 µg/mL in assay [10] (Diamondback moth egg, trial concentration 5 mg/L) was 59.1%; in assay [11] (Maize armyworm egg, trial concentration 5 mg/L), 22.6%. Also, the inhibition at 20 µg/mL in assay [10] (Diamondback moth egg, trial concentration 20 mg/L) is 75%; in assay [11] (Maize armyworm egg, trial concentration 20 mg/L) it was 58.4%.
Regarding `CC(COc1ccc(Oc2ccccc2)cc1)Oc1ccccn1` (stereo not shown) [Pyriproxyfen], in assay [12] (Bemisia tabaci egg, trial concentration 5 mg/L), the inhibition at 5 µg/mL worked out at 43.7%. The inhibition at 20 µg/mL in assay [12] (Bemisia tabaci egg, trial concentration 20 mg/L) came to 86.8%. Further, the inhibition at 50 µg/mL in assay [13] (Bradysia odoriphaga egg, trial concentration 50 mg/L, five days after application) is 42.4%. Also, the inhibition at 100 µg/mL in assay [13] (Bradysia odoriphaga egg, trial concentration 100 mg/L, five days after application) was found to be 61.6%.
As to `COc1ccccc1C1OC(=O)CC1C(=O)OCCC(F)=C(F)F` (stereo not shown) [Trifluenfuronate, trifluenfuronate], the 50% lethal concentration (LC50) was 3.66 µg/mL (≈ 10.6 µM) in assay [1]; 4.12 µg/mL (≈ 12 µM) in assay [2]; 3.69 µg/mL (≈ 10.7 µM) in assay [3]; 3.28 µg/mL (≈ 9.53 µM) in [4]; 3.89 µg/mL (≈ 11.3 µM) in assay [5] (area Fangcun, Taian); 3.92 µg/mL (≈ 11.4 µM) in assay [5] (area Jiyang, Jinan). The 50% lethal concentration (LC50) in [5] (area Qihe, Dezhou) was 3.79 µg/mL (≈ 11 µM); in [5] (area Shouguang, Weifang) it was 4.11 µg/mL (≈ 11.9 µM). Also, the LC90 in assay [1] was found to be 12.44 µg/mL (≈ 36.1 µM); in assay [2], 20.77 µg/mL (≈ 60.3 µM); in assay [3] it was 18.01 µg/mL (≈ 52.3 µM); in [4] it was 17.97 µg/mL (≈ 52.2 µM); in assay [5] (area Fangcun, Taian), 21.95 µg/mL (≈ 63.8 µM); in [5] (area Jiyang, Jinan) it was 20.94 µg/mL (≈ 60.8 µM). Besides, the LC90 in assay [5] (area Qihe, Dezhou) came to 15.62 µg/mL (≈ 45.4 µM); in [5] (area Shouguang, Weifang) it was 19.37 µg/mL (≈ 56.3 µM). Further, the inhibition at 5 µg/mL in [12] (Bemisia tabaci) was found to be 83.3%; in assay [10] it was 73.6%; in [11], 83.7%; in assay [6] it was 77.7%; in assay [7] it was 77%; in assay [8], 75.3%. For the same compound, the inhibition at 5 µg/mL in assay [9] stood at 77.8%; in assay [13] (Bradysia odoriphaga), 81.3%. Further, the inhibition at 20 µg/mL was determined as 98.7% in assay [12] (Bemisia tabaci), 88.3% in assay [10], 92.3% in assay [11] and 95.3% in [13] (Bradysia odoriphaga). The inhibition at 1 µg/mL in assay [6] worked out at 47.3%; in assay [7], 50.4%; in assay [8] it was 48.7%; in assay [9] it was 51%.
